In the assay the target is recombinant eIF4E (Homo sapiens (Human), UniProt P06730). Put plainly: Fluorescence polarization competition assay for eIF4E binding potency. The method in brief:
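FP readout; IC50 fit from 8-point, 3-fold series. 75 nM eIF4E + 20 nM ATTO-550-labelled m7GDP probe, Tris pH 7.5/NaCl/DTT/Tween buffer, 1% DMSO final. 30 min RT equilibration, light-protected.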

Where [1] appears, read: fluorescence polarization competition, 75 nM recombinant eIF4E, 20 nM EDA-m7GDP-ATTO-550, IC50 class, read-out: elF4E FP.
The mark [2] stands for this setting: inhibition of eIF4E/EDA-m7GDP-ATTO-550 binding by 50%, Table 4B calculated values, read-out: IC50.
[3] abbreviates: inhibition of eIF4E/EDA-m7GDP-ATTO-550 binding, calculated IC50 values, Table 4B, read-out: IC50.

Among the data in patent publication US11286268B1, “EIF4E-inhibiting compounds and methods” (EFFECTOR THERAPEUTICS, INC., priority 2019, dated 2022) are IC50 values, retold here.

Like-named read-outs stand apart in the source and are kept apart here.

recombinant eIF4E, sequence (P06730 whole entry): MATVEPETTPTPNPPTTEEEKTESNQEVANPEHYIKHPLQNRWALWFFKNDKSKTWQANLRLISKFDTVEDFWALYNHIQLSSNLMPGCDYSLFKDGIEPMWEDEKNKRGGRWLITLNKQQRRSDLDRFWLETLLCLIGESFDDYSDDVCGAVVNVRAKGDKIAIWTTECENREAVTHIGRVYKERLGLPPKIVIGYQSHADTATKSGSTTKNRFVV

On to `Cc1cc(-c2cc(Cl)ccc2OCCn2c(C)nc3cc(C(F)(F)F)c(N4CCC(C(F)(F)F)CC4)nc3c2=O)c2scc(C(=O)O)c2n1` [compound 803], for which the IC50 runs as follows: under setting [1], 50 to 1000 nM; under setting [2], 161 nM.

For `Cc1nc2cc(C(F)(F)F)c(N3CCN(C4CC4)CC3)c(C#N)c2c(=O)n1CCOc1ccc(Cl)cc1-c1ccnc2c(C(=O)O)csc12` [compound 1291], the IC50 under setting [3] was 41.2 nM.

With `Cc1cc(-c2cc(Cl)ccc2OCCn2c(C)nc3cc(C(F)(F)F)cnc3c2=O)c2scc(C(=O)O)c2n1` [compound 337], the IC50 under setting [1] is below 50 nM and the IC50 under setting [2] is 25.7 nM.

Take `CONC(=O)c1csc2c(-c3cc(Cl)ccc3OCCn3c(C)nc4cc(F)c(F)c(C#N)c4c3=O)ccnc12` [compound 308]: the IC50 was 50 to 1000 nM under setting [1] and 811 nM under setting [2].

In the case of `COC(=O)c1csc2c(-c3cc(Cl)ccc3OCCn3c(C)nc4cnc(N(C)C5CCN(CC(F)(F)F)CC5)c(C#N)c4c3=O)ccnc12` [compound 1620], the IC50 under setting [3] was 17.9 nM.

As for `Cc1nc2cnc(N(C)C3CCN(CC(F)(F)C(F)F)CC3)c(C#N)c2c(=O)n1CCOc1ccc(Cl)cc1-c1ccnc2c(C(=O)O)csc12` [compound 1515], the IC50 under setting [3] was 32.1 nM.

As for `Cc1nc2ccc(C(F)(F)F)c(C#N)c2c(=O)n1CCOc1ccc(Cl)cc1-c1ccnc2c(C(=O)O)csc12` [compound 1935], under setting [3], the IC50 is 80.1 nM.

Consider `Cc1cc(-c2cc(Cl)ccc2OCCn2c(C)nc3cc(C(F)(F)F)c(Cc4ccccn4)nc3c2=O)c2scc(C(=O)O)c2n1` [compound 390], for which the IC50 is, setting by setting: under setting [1], below 50 nM; under setting [2], 1.75 nM.

In the case of `Cc1nc2c(N3CCN(CCF)C4CC43)ncc(C#N)c2c(=O)n1CCOc1ccc(Cl)cc1-c1ccnc2c(C(=O)O)csc12` (centres unmarked) [compound 817], the IC50 under setting [1] is below 50 nM.

In the case of `Cc1cc(-c2cc(Cl)ccc2OCCn2c(C)nc3cnc(OC4CN(C)C4)c(C#N)c3c2=O)c2sc(C)c(C(=O)O)c2n1` [compound 846], the IC50 under setting [1] was below 50 nM and the IC50 under setting [2] was 37.9 nM.

In the case of `Cc1cc(-c2cc(Cl)ccc2OCCn2c(C)nc3cc(C(F)(F)F)c(C(=O)N(C)C)nc3c2=O)c2scc(C(=O)O)c2n1` [compound 781], the IC50 runs as follows: under setting [1], below 50 nM; under setting [2], 3.12 nM.

In the case of `CCc1nc(C)c2nc(C)n(CCOc3ccc(Cl)cc3-c3ccnc4c(C(=O)O)csc34)c(=O)c2c1C#N` [compound 851], the IC50 reads like this: under setting [1], below 50 nM; under setting [2], 6.02 nM.

For the compound `Cc1cc(-c2cc(Cl)ccc2OCCn2c(C)nc3cc(C(F)(F)F)c(-c4cccnc4)nc3c2=O)c2scc(C(=O)O)c2n1` [compound 461], the IC50 runs as follows: under setting [1], below 50 nM; under setting [2], 6.15 nM.

As for `Cc1cc(-c2cc(Cl)ccc2C#CCn2c(C)nc3cc(C(F)(F)F)cc(C#N)c3c2=O)c2scc(C(=O)O)c2n1` [compound 560], the IC50 by setting is: under setting [1], below 50 nM; under setting [2], 4.77 nM.

Take `Cc1cc(-c2cc(Cl)ccc2OCCn2c(C)nc3c(C)nc(N4CCN(C)CC4)c(C#N)c3c2=O)c2scc(C(=O)O)c2n1` [compound 875]: the IC50 under setting [1] is below 50 nM.

For `N#Cc1cc2c(=O)n(CCOc3ccc(Cl)cc3-c3cnc(C(F)F)c(C(=O)O)c3)cnc2cn1` [compound 109], the IC50 is above 1000 nM under setting [1] and 19200 nM under setting [2].

For the compound `N#Cc1cc2c(=O)n(CCOc3ccc(Cl)cc3-c3cccc(-c4nn[nH]n4)c3)cnc2cn1` [compound 128], the IC50 is, setting by setting: under setting [1], 50 to 1000 nM; under setting [2], 970 nM.

As for `Cc1nc2cc(F)c(F)c(C#N)c2c(=O)n1CCOc1cc(F)c(Cl)cc1-c1ccnc2c(C(=O)O)csc12` [compound 506], the IC50 runs as follows: under setting [1], 50 to 1000 nM; under setting [2], 68.9 nM.

Take `Cc1cc(-c2cc(Cl)ccc2OCCn2c(C)nc3cc(C(F)(F)F)c(-c4cncc(C)c4C)c(C#N)c3c2=O)c2scc(C(=O)O)c2n1` [compound 903]: the IC50 was below 50 nM under setting [1] and 11.2 nM under setting [2].

Consider `Cc1nc2cc(C(F)(F)F)c(CC3CN(CCF)C3)c(C#N)c2c(=O)n1CCOc1ccc(Cl)cc1-c1ccnc2c(C(=O)O)csc12` [compound 321], for which the IC50 reads like this: under setting [1], below 50 nM; under setting [2], 4.89 nM.

In the case of `CCc1cc(-c2cc(Cl)ccc2OCCn2c(C)nc3cnc(N4CCN(C)C5CC54)c(C#N)c3c2=O)c2scc(C(=O)O)c2n1` (centres unmarked) [compound 1219], the IC50 is below 50 nM under setting [1] and 3.99 nM under setting [3].

In the case of `Cc1cc(-c2cc(Cl)ccc2OCCn2c(C)nc3cnc(C4CC4C(F)(F)F)c(C#N)c3c2=O)c2scc(C(=O)O)c2n1` (centres unmarked) [compound 994], the IC50 under setting [1] was below 50 nM and the IC50 under setting [2] was 23.4 nM.

As to `Cc1nc2cc(C#N)c(F)c(C#N)c2c(=O)n1CCOc1ccc(Cl)cc1-c1ccnc2c(C(=O)O)csc12` [compound 240], the IC50 by setting is: under setting [1], below 50 nM; under setting [2], 9.78 nM.

Turning to `Cc1cc(-c2cc(Cl)ccc2OCCn2c(C)nc3cc(C(F)(F)F)c(OC4CC4)c(C#N)c3c2=O)c2scc(C(=O)O)c2n1` [compound 1034], the IC50 reads like this: under setting [1], below 50 nM; under setting [2], 37.9 nM.

As to `Cc1cncc(-c2c(C(F)(F)F)cc3nc(C)n(CCOc4ccc(Cl)cc4-c4cc(C)nc5c(C(=O)O)csc45)c(=O)c3c2C#N)c1` [compound 775], the IC50 under setting [1] is below 50 nM and the IC50 under setting [2] was 48.3 nM.

Turning to `N#Cc1cncc2ncn(CCOc3ccc(Cl)cc3-c3ccc(C(=O)O)c(CCCCC(O)CO)c3)c(=O)c12` (centres unmarked) [compound 184], under setting [1], the IC50 fell in the range of 50 to 1000 nM.

Turning to `O=C(O)c1cccc(-c2cc(Cl)ccc2OCCc2cnc(C(F)F)c3nc(Nc4ccccc4)[nH]c(=O)c23)c1` [compound 173], the IC50 is 50 to 1000 nM under setting [1] and 141 nM under setting [2].

With `Cc1cc(-c2cc(Cl)ccc2OCCn2c(C)nc3cc(C(F)(F)F)c(C4CC4)nc3c2=O)c2scc(C(=O)O)c2n1` [compound 795], the IC50 is, setting by setting: under setting [1], below 50 nM; under setting [2], 12.1 nM.

Turning to `CCc1cc(-c2cc(Cl)ccc2OCCn2c(C)nc3cnc(N)c(C#N)c3c2=O)c2scc(C(=O)O)c2n1` [compound 1071], the IC50 by setting is: under setting [1], 50 to 1000 nM; under setting [2], 54 nM.

`Cc1nc2cnc(N3CCN(CC(F)C(F)(F)F)CC3)c(C#N)c2c(=O)n1CCOc1ccc(Cl)cc1-c1ccnc2c(C(=O)O)csc12` (centres unmarked) [compound 1358]: under setting [3], the IC50 was 18.3 nM.

For the compound `Cc1nc2cnc(N3CCC4(CC3)CN(CC(C)(F)F)C4)c(C#N)c2c(=O)n1CC#Cc1ccc(Cl)cc1-c1ccnc2c(C(=O)NS(=O)(=O)C3COC3)csc12` [compound 1411], the IC50 under setting [3] was 17.5 nM.

Regarding `Cc1nc2cc(C(F)(F)F)cc(C#N)c2c(=O)n1CCOc1ccc(Cl)cc1-c1cc(C(N)=O)nc2c(C(=O)O)csc12` [compound 445], the IC50 under setting [1] fell in the range of 50 to 1000 nM.

As to `Cc1cc(-c2cc(Cl)ccc2OCCn2c(C)nc3cc(C(F)(F)F)c(N(C)C)c(C#N)c3c2=O)c2scc(C(=O)O)c2n1` [compound 996], the IC50 is, setting by setting: under setting [1], below 50 nM; under setting [2], 31.6 nM.

With `CCN(c1ncc2nc(C)n(CC#Cc3ccc(Cl)cc3-c3ccnc4c(C(=O)NS(C)(=O)=O)csc34)c(=O)c2c1C#N)C1CCN([C@H]2C[C@H](OC(F)F)C2)CC1` [compound 1767], the IC50 under setting [3] was 17.4 nM.

With `Cc1cc(-c2cc(Cl)ccc2OCCn2c(C)cc3cnc(N4CCC4)c(C#N)c3c2=O)c2scc(C(=O)O)c2n1` [compound 1003], the IC50 is below 50 nM under setting [1] and 13.4 nM under setting [2].

Consider `N#Cc1cccc2nc(C(F)F)n(CCOc3ccc(Cl)cc3-c3ccc(C(=O)O)c4cnsc34)c(=O)c12` [compound 190], for which the IC50 reads like this: under setting [1], 50 to 1000 nM; under setting [2], 301 nM.

As to `Cc1nc2cnc(N(C)C3CCN(CC4CC(OC(F)F)C4)CC3)c(C#N)c2c(=O)n1CC#Cc1ccc(Cl)cc1-c1ccnc2c(C(=O)O)csc12` (centres unmarked) [compound 1189], the IC50 was below 50 nM under setting [1] and 13.4 nM under setting [3].

Regarding `Cc1nc2c(C(C)C)nc(N3CCN(CCF)CC3)c(C#N)c2c(=O)n1CCOc1ccc(Cl)cc1-c1ccnc2c(C(=O)O)csc12` [compound 183], the IC50 is 50 to 1000 nM under setting [1] and 50.2 nM under setting [2].

With `Cc1nc2c(N3C4CCC3CN(C)C4)ncc(C#N)c2c(=O)n1CCOc1ccc(Cl)cc1-c1ccnc2c(C(=O)O)csc12` [compound 857], the IC50 reads like this: under setting [1], below 50 nM; under setting [2], 4.62 nM.

`Cc1nc2c(C(F)(F)F)cc(N3CCN(C)CC3)nc2c(=O)n1CC#Cc1ccc(Cl)cc1-c1ccnc2c(C(=O)O)csc12` [compound 1981]: the IC50 under setting [3] is 23.8 nM.

As for `CCc1cc(-c2cc(Cl)ccc2OCCn2c(C)nc3cnc(N4CCN(C)CC4)c(C#N)c3c2=O)c2scc(C(=O)O)c2n1` [compound 1086], the IC50 was below 50 nM under setting [1] and 38.4 nM under setting [2].

In the case of `Cc1nc2cnc(N(C)C3CCN([C@H]4C[C@H](OC(F)F)C4)CC3)c(C#N)c2c(=O)n1CC#Cc1ccc(Cl)cc1-c1ccnc2c(C(=O)NS(=O)(=O)c3cccnc3)csc12` [compound 1765], the IC50 under setting [3] is 12.3 nM.

With `Cc1cc(-c2cc(Cl)ccc2OCCn2c(C)nc3cnc(OCc4ccccn4)c(C#N)c3c2=O)c2scc(C(=O)O)c2n1` [compound 1039], the IC50 under setting [1] was below 50 nM and the IC50 under setting [2] is 21.7 nM.

On to `N#Cc1cc2c(=O)n(CCOc3ccc(Cl)cc3-c3ccnc4c(C(=O)O)csc34)cnc2cn1` [compound 30], for which the IC50 was 50 to 1000 nM under setting [1] and 164 nM under setting [2].

Regarding `Cc1cc(-c2cc(Cl)ccc2OCCn2c(C)nc3cnc(C4CC(F)(F)C4)c(C#N)c3c2=O)c2scc(C(=O)O)c2n1` [compound 928], the IC50 under setting [1] is below 50 nM and the IC50 under setting [2] was 38.7 nM.

In the case of `Cc1cc(-c2c(F)cc3nc(C)n(CCOc4ccc(Cl)cc4-c4cc(C)nc5c(C(=O)O)csc45)c(=O)c3c2C#N)ccn1` [compound 778], the IC50 under setting [1] was below 50 nM and the IC50 under setting [2] was 0.0702 nM.

Turning to `O=C(O)c1cccc(-c2cc(Cl)ccc2OCCn2c(Nc3ccccc3)nc3c(Cl)nccc3c2=O)c1` [compound 2001], the IC50 under setting [3] was 65800 nM.
